A word on the melting point: it is the temperature of the solid-liquid transition.

These results are taken from a melting point compilation (Tetko et al.; mined from patent text by program, amines drawn as free bases though some values may be those of a salt).

Each structure is given as a SMILES string.

`COc1cc(OC)cc(N(C)S(=O)(=O)c2ccc(C)cc2)c1` displayed a melting point of 110 to 111 °C.
Then `CC(=O)NC[C@H]1CN(c2ccc(N3CCC4(CC3)NCCO4)c(F)c2)C(=O)O1`, with 138 to 140 °C.
To `Oc1cc(-c2ccccc2)on1` belongs 150 to 151 °C.
To `CC(C)C(O)(C#Cc1cccs1)c1cncnc1` (stereo not drawn) belongs 113 to 114 °C; to `CCCC(=O)NCCc1c(OC)ccc2ccccc12`, 73 to 79 °C; to `O=C(NCCN1CCC2(CC1)C(=O)NCN2c1ccccc1)c1ccc(F)cc1[N+](=O)[O-]`, 160 °C.
Compound `C[C@@H]1S[C@@H](C(=O)Nc2ccc(CC3SC(=O)NC3=O)cc2)Cc2cc3c(cc2C1=O)OCO3` (stereo partly drawn) returned a melting point of 139 to 144 °C.
Then `CCCn1nc(C(F)(F)CC)nc1Cc1ccc(-c2ccccc2-c2nnn[nH]2)nc1`, with 142 to 144 °C; and `COC(=O)C1=C(CN2CCN(C)CC2)Nc2ccnc(OC(C)C)c2C1c1ccccc1` (stereo not drawn), with 149 to 151 °C.
To `CC(=O)NC(CCc1ccc(C=O)cc1)(COC(C)=O)COC(C)=O` belongs 98 to 100 °C.
To `Cc1cc2c(cc1O)C(C)(C)CC1(CC(C)(C)c3cc(OCC(N)=O)c(C)cc3O1)O2` (stereo not drawn) belongs 220 to 221 °C; to `NN1CCN(Cc2c[nH]c3ccccc23)CC1`, 147 to 149 °C.
`O=S(=O)(Br)c1cccc2cccnc12` had a melting point of 142 to 144 °C.
In turn, `CC(C)(C)OC(=O)N[C@@H](COS(C)(=O)=O)Cc1ccccc1` showed a melting point of 119 to 120 °C.
With `Nc1nc2c(s1)CC(CCN1CCN(c3ccccn3)CC1)CC2` (stereo not drawn), the melting point was 176 to 190 °C.
Then `CC1CCC(c2cccc(NC(=O)N3CCC4(CC3)OCCO4)c2)(N2CCN(c3ccccc3)CC2)CC1` (stereo not drawn), with 245 to 247 °C.
As to `Cc1oc(-c2ccccc2)nc1CCOc1ccc(C[C@H](NC(=O)C=Cc2ccccc2)C(=O)O)cc1`, the melting point lay in the range of 207 to 209 °C.
Then `CCOC(=O)C(c1ccc(NC(=O)OC(C)(C)C)cc1)N(C)C(C)C` (stereo not drawn), with 87 to 88 °C; and `Cc1c(S(=O)(=O)c2ccc(=O)[nH]n2)oc2ccccc12`, with 182 to 183 °C.
To `CS(=O)(=O)Nc1ccc(Sc2ccc([N+](=O)[O-])cc2)cc1Oc1ccc(F)cc1F` belongs 124 to 127 °C; to `CC(C(=O)OCc1ccc([N+](=O)[O-])cc1)N(C(=O)OC(C)(C)C)C1CC1` (stereo not drawn), 117 to 118 °C.
Then `Cn1ccnc1Sc1cc(Cl)ccc1[N+](=O)[O-]`, with 130 to 131 °C; and `O=C(O)[C@@H]1C[C@H](SCc2ccc(C3CCCCC3)cc2)CN1`, with 209 to 210 °C; and `CCOC(=O)c1cncn1-c1ccc(F)cc1`, with 114 to 115 °C.
Take `Nc1ccc2ncnc(Nc3cc(Cl)c(Cl)cc3F)c2c1`: the melting point amounted to 265 °C.
`O=S1CCn2c1nc(-c1ccc(F)cc1)c2-c1ccncc1` (stereo not drawn) showed a melting point of 229 to 231 °C.
To `O=C1c2c(O)ccc(O)c2C(=O)c2c(NCCN3CCC(O)CC3)ccc(NCCN3CCC(O)CC3)c21` belongs 241 to 244 °C; to `COC(=O)N1CCN(Cc2nc(-c3ccc4c(c3)Nc3ccccc3S4)cs2)CC1`, 180 to 182 °C; to `CCOC(=O)CCCn1c(NC(=O)c2cccs2)nc2cc(C(=O)N(C)C3CCCCC3)ccc21`, 82 to 84 °C.
To `CC(C)c1nn(Cc2ccc(Cl)cc2Cl)cc1CCCOc1cc(CCC(=O)O)n(-c2ccccc2)n1` belongs 105 to 107 °C; to `O=C(O)c1cccc(C(=O)c2ccc(F)cc2)c1`, 180 °C; to `Cc1c(Cl)nc(-c2ccc([N+](=O)[O-])o2)nc1Cl`, 174 to 175 °C.
To `O=C(O)c1cc(Cl)cc(Oc2cccc(C(F)(F)F)c2)n1` belongs 81 to 82 °C; to `CCCCCCCCCCCCCCCCCCNc1nc(NCC(O)C2CC(C)(C)NC(C)(C)C2)nc(NCC(O)C2CC(C)(C)NC(C)(C)C2)n1` (stereo not drawn), 104 to 107 °C; to `CN1C(=O)C(NC(=O)Nc2ccc(F)cc2)N=C(c2ccccc2)c2ccccc21` (stereo not drawn), 269 to 270 °C.
As for `O=C(Nc1cn[nH]c1-c1ccc(F)cc1)c1c(F)cccc1F`, the melting point came out at 112 °C.
Then `O=C(O)c1cc(SCC(=O)c2ccccc2)cc(C(F)(F)F)c1`, with 135 to 150 °C; and `O=C(O)[C@@H]1C[C@H]1Sc1nc2ccccc2cc1-c1ccccc1` (relative stereo), with 168 to 170 °C; and `Cc1ccc(Oc2c(C)cc(N)c(C)c2Cl)c(C)c1`, with 86 to 88 °C.
Then `NC(=O)NC(CS)Cc1ccccc1` (single isomer, unassigned; (+)), with 118 °C.
To `CCS(=O)(=O)NC(C(=O)NCCc1ccc(OC)c(OC)c1)c1ccc(Cl)cc1` (stereo not drawn) belongs 136 to 138 °C.
As for `Cc1cc(C)cc(CC(=O)Nc2[nH]c(=O)[nH]c(=O)c2C(C)C)c1`, the melting point is 126 to 127 °C.
To `NC(=O)N(O)CC#CCOc1ccccc1` belongs 97 to 99 °C; to `CCOC(=O)CC(=O)c1cc(F)c(F)c(OC)c1F`, 42 to 44 °C; to `Cc1cc(C(C)(C)C)c(O)c(S(=O)(=O)Nc2ccc(C#N)c(C(F)(F)F)c2)c1`, 159 to 162 °C.
Then `CC1(C)CN(c2ncc(C(=O)N(CC3CC3)c3cccc(C(F)(F)F)c3)c(N)n2)C(=O)N1`, with 193 to 194 °C; and `C=C(F)C(=O)Oc1ccc(C#N)cc1`, with 78 to 79 °C; and `N#CC(=Cc1ccc(CBr)cc1)c1ccccc1`, with 61 °C.
As for `CC(C)C(Cl)C(=O)Nc1c(C(=O)CC(=O)Nc2nccs2)cccc1C(F)(F)F` (stereo not drawn), the melting point was found to be 186 °C.
Then `Oc1ccc(N2CCN(c3ccc(C(F)(F)F)cn3)CC2)cc1`, with 178 to 179 °C.
To `COC(=O)C1Cc2c([nH]c3ccccc23)C(C)N1` (stereo not drawn) belongs 152 to 154 °C; to `N#Cc1ccc(CC(NC(=O)OCc2ccccc2)C(=O)NCC(=O)NCCC(=O)OCc2ccccc2)cc1` (racemic), 134 to 135 °C.
Regarding `N#Cc1nn(-c2c(Cl)cc(C(F)(F)F)cc2Cl)cc1C1CC1`, the melting point is 124 °C.
Then `O=C(O)C(Cc1ccccc1)Nc1cc(-c2ccc(Cc3ccccc3)cc2)ncn1` (stereo not drawn), with 116 to 118 °C; and `COC(=O)c1ccc(Cl)cc1NC(=O)CSc1ccccc1Cl`, with 99 to 101 °C.
Regarding `CCn1c(SC)cc2ccccc2c1=O`, the melting point fell in the range of 80 to 82 °C.
The compound `Clc1nc2nc(Cl)sc2s1` returned a melting point of 180 °C.
To `CC(=O)Nc1cccc(CNc2nc(Nc3cccc(NS(C)(=O)=O)c3)nc3[nH]cnc23)c1` belongs 159 to 162 °C.
Then `OC1CC(c2ccccc2)C(c2ccccc2)(c2ccc(OCCN3CCOCC3)cc2)O1` (stereo not drawn), with 150 to 153 °C.
To `COc1cc2c(c(OC)c1OC)C1=C(CCC1)C(=O)CC2` belongs 101 to 102 °C.
As for `Cn1cc(C(=O)Nc2ccccc2-c2ccc(Cl)c(Cl)c2)c(C(F)(F)F)n1`, the melting point fell in the range of 131 to 133 °C.
For the compound `CCOC(=O)c1ncn2c1CN(C)C(=S)c1cc(F)ccc1-2`, the melting point was in the range of 157 to 159 °C.
To `Cc1cc(C(=S)CN=[N+]=[N-])ccc1O` belongs 124 to 129 °C.
